The source of these data is patent publication US20260232815A1, “COPOLYMER-DRUG CONJUGATE FOR TREATMENT OF TUMOURS” (Danmarks Tekniske Universitet, priority 2023, published 2026).

The experiment concerns Murine colon carcinoma CT26. Put plainly: Antitumour efficacy after intratumoral treatment of CT26 tumours. The format is in vivo, Balb/cJRj mice.

Structures are written as SMILES.

Method: Healthy Balb/cJRj mice were injected with 100 μL of Murine colon carcinoma CT26 cancer cells (3×105) in RPMI media subcutaneously on the right flank. Mice bearing tumors with volumes between 50 and 200 mm^3 were randomized and rearranged into new cages by blocking for initial tumor volume, and each cage received one of the four treatments described in Table 2 administered intratumorally (50 μL). A total of 3 injections, separated by 7 days each, were made for each treatment.
83 days after the first tumor inoculation, the surviving mice were re-challenged by a second inoculation of CT26 cancers cells (same dose) on the left flank of the mice along with a control group getting their first inoculation. The mice were monitored for weight and their tumors were measured using an electronic caliper twice a week, and fluorescence imaging was performed at regular intervals for all formulations containing Cy7 moieties. […] Humane endpoints included general signs of misthriving mice, significant weight loss (15% of initial weight or 10% overnight weight loss), or presence of tumor wounds larger than 8 mm.

For the compound `CCOCc1nc2c(N)nc3ccccc3c2n1CCCN` [TLR7/8a, 4-Amino-2-(ethoxymethyl)-1H-imidazo[4,5-c]quinoline-1-propanamine], for the setting “intratumoral treatment”, the “antitumour activity / improvement versus control” value is “potential minor improvement in tumour treatment compared to the control”. Also, the “averaged slope coefficient for the tumour growth plots (tumour growth rate)” value (mouse, in vivo) is “positive”. Besides, the “mice recovered from the tumour” value (six mice per group, 3 intratumoral injections 7 days apart) is listed as “two out of six mice recovered”.
